# According to patent US6248747A, “5-(heterocyclic alkyl)-6-aryl-dihydropyrimidines” (Synaptic Pharmaceutical Corporation, priority 1999, dated 2001):
# Where two headings read alike, the source gives them in different places.
# Key:
# [1] = target: T1, cloned human α1a receptor (Homo sapiens, UniProt P25100); assay: Radioligand binding affinity at cloned human α1a receptor ([3H]prazosin); conditions: LM(tk-) cell membranes, SEM and n
# T1 construct: The entire coding region of α1A (1719 bp); expressed in transfected cells; host or cells: LM(tk-) cells, membranes
# T1 sequence (P25100 1-572): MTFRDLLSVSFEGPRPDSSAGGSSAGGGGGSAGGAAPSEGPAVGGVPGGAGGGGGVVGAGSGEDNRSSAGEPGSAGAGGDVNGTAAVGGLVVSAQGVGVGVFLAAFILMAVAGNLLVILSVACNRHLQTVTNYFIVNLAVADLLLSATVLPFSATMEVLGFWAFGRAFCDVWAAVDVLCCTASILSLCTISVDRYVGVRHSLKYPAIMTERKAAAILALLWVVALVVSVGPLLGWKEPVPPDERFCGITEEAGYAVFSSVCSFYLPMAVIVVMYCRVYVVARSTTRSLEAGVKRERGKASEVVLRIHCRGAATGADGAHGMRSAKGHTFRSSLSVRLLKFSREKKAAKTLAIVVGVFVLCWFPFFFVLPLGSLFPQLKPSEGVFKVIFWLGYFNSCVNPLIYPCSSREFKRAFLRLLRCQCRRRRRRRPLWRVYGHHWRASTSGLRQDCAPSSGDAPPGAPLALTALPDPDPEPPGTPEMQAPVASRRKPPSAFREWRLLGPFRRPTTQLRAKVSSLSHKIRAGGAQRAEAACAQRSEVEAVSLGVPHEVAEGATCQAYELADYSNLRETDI
# Protocol: (§1) The protocols for these experiments are given below.
# (§2) These cell lines were prepared by transfecting the cloned cDNA or cloned genomic DNA or constructs containing both genomic DNA and cDNA encoding the human α-adrenergic receptors as follows:
# (§3) Radioligand Binding Assays: Transfected cells from culture flasks were scraped into 5 ml of 5 mM Tris-HCl, 5 mM EDTA, pH 7.5, and lysed by sonication. The cell lysates were centrifuged at 1000 rpm for 5 min at 4° C., and the supernatant was centrifuged at 30,000×g for 20 min at 4° C. The pellet was suspended in 50 mM Tris-HCl, 1 mM MgCl2, and 0.1% ascorbic acid at pH 7.5. […] Nonspecific binding was determined in the presence of 10 μM phentolamine. The reaction was stopped by filtration through GF/B filters using a cell harvester.
# [2] = target: T2, cloned human α1c receptor (Homo sapiens, UniProt P35348); assay: Radioligand binding affinity at cloned human α1c receptor ([3H]prazosin); conditions: LM(tk-) cell membranes, SEM and n
# T2 construct: The entire coding region of α1C (1401 bp); expressed in transfected cells; host or cells: LM(tk-) cells, membranes; vector EXJ.RH (derived from pCEXV-3)
# T2 sequence (P35348 1-466): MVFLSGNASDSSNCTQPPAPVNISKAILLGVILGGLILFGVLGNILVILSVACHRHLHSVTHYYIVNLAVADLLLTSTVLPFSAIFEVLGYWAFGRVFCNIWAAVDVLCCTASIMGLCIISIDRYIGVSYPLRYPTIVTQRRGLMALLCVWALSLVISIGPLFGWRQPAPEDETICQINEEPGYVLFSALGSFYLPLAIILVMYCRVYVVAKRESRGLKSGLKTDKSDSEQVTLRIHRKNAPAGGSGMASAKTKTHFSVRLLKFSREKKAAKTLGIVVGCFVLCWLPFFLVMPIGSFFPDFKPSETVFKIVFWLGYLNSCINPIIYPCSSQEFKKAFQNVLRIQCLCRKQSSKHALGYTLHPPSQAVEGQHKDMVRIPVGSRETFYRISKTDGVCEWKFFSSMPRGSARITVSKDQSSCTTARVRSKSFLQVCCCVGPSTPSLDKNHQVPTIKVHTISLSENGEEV
# Protocol: as §1, §2
# The construct involved ligating three partial overlapping fragments: a 5' 0.6 kb HincII genomic clone, a central 1.8 EcoRI hippocampal cDNA clone, and a 3' 0.6 Kb PstI genomic clone. The hippocampal cDNA fragment overlaps with the 5' and 3' genomic clones so that the HincII and PstI sites at the 5' and 3' ends of the cDNA clone, respectively, were utilized for ligation. This full-length clone was cloned into the KpnI site of the expression vector, using the 5' and 3' KpnI sites of the fragment, derived from vector (i.e., pBluescript) and 3'-untranslated sequences, respectively. Stable cell lines were selected as described above.
# as §3, with “The reaction was stopped by filtration through GF/B filters using a cell harvester.” left out
# [3] = target: T3, cloned human α1b receptor (Homo sapiens, UniProt P35368); assay: Radioligand binding affinity at cloned human α1b receptor ([3H]prazosin); conditions: LM(tk-) cell membranes, SEM and n
# T3 construct: The entire coding region of α1B (1563 bp); expressed in transfected cells; host or cells: LM(tk-) cells, membranes; vector pCEXV-3
# T3 sequence (P35368 1-520): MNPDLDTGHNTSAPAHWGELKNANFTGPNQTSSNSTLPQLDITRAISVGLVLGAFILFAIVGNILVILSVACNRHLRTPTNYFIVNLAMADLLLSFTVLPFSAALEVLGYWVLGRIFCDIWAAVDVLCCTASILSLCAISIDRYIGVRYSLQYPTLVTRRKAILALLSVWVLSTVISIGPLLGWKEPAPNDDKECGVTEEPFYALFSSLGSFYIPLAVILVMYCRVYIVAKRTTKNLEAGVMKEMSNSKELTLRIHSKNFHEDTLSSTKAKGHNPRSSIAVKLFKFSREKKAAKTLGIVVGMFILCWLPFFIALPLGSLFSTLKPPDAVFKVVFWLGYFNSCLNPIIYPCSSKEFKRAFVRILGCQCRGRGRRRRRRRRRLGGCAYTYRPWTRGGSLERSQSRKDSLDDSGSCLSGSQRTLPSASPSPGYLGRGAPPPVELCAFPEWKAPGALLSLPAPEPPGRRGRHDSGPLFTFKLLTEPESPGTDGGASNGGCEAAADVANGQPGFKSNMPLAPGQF
# Protocol: as §1, §2
# The construct involved ligating the full-length containing EcoRI brainstem cDNA fragment from λ ZapII into the expression vector. Stable cell lines were selected as described above.
# as §3
# [4] = cited from earlier work
# [5] = system: benign prostatic hyperplasia (BPH); conditions: literature report (phenoxybenzamine: M. Caine et al. 1976); cited from earlier work
Compound,side effects ([4]; background statement),usefulness in treating BPH [5],also measured
"CCC1=C(C(N)=O)C(c2ccc(F)c(F)c2)N(C(=O)NCCCN2CCC(C(=O)OC)(c3ccccc3)CC2)C(=O)N1 (single isomer, unassigned; (+)) [Example 20, (+)-5-Carboxamido-6-(3,4-difluorophenyl)-4-ethyl-1-{N-[3-(4-methoxycarbonyl-4-phenylpiperidin-1-yl)propyl]}carboxamido-2-oxo-1,2,3,6-tetrhydropyrimidine]",–,–,hα1a pKi [1]: 6.46; hα1c pKi [2]: 9.68; hα1b pKi [3]: 6.59
Clc1cccc(Cl)c1N=C1NCCN1 [clonidine],dry mouth and sedation,–,–
CC(COc1ccccc1)N(CCCl)Cc1ccccc1 (stereo not shown) [phenoxybenzamine],significant side effects such as dizziness and asthenia,useful in relieving the symptoms of BPH,–
COc1cc2nc(N3CCN(C(=O)c4ccco4)CC3)nc(N)c2cc1OC [prazosin],–,useful for treating BPH,side effects ([4]; in vivo): untoward side effects
COc1cc2nc(N3CCN(C(=O)C4CCCO4)CC3)nc(N)c2cc1OC (stereo not shown) [terazosin],untoward side effects,useful for treating BPH,–
